Assay results from patent US12502434B2, “Compound comprising EZH2 inhibitor and E3 ligase binder and pharmaceutical composition for preventing or treating EZH2-associated disease comprising same as active ingredient” (DAEGU-GYEONGBUK MEDICAL INNOVATION FOUNDATION, priority 2019, dated 2025).
Where two headings read alike, the source gives them in different places.

Experiments:
[1] = biological target: T1, HiBiT-EZH2 in EZH2-HiBiT HEK293T cells (Homo sapiens, UniProt Q15910); assay: EZH2 proteolytic activity using Nano-BiT assay system; assay type: cell-based; conditions: 72 hours, n = 3
T1 construct: endogenous in cells; host or cells: HEK293T (CRISPR/Cas9 HiBiT knock-in at the EZH2 locus)
T1 sequence (Q15910 whole entry): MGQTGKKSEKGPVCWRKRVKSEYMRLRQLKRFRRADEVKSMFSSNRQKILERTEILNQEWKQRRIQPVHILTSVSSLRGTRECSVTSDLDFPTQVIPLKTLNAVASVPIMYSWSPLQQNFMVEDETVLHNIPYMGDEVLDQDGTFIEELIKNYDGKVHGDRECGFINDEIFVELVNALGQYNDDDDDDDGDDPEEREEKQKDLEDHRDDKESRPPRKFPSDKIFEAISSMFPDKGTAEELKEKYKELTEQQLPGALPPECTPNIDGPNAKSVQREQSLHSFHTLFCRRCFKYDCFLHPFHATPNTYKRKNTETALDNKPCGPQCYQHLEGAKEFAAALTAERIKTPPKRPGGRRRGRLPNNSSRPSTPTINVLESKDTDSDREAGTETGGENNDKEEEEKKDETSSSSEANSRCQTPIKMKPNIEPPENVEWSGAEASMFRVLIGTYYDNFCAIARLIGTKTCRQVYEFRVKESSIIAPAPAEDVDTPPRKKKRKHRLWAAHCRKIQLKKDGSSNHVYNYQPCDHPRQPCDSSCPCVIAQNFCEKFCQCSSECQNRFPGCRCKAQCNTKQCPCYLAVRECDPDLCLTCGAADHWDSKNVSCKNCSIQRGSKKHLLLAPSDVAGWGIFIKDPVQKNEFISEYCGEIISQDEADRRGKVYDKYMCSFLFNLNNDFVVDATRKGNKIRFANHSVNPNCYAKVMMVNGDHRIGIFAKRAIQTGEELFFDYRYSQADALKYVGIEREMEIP
T1 sequence (O75530 whole entry partner): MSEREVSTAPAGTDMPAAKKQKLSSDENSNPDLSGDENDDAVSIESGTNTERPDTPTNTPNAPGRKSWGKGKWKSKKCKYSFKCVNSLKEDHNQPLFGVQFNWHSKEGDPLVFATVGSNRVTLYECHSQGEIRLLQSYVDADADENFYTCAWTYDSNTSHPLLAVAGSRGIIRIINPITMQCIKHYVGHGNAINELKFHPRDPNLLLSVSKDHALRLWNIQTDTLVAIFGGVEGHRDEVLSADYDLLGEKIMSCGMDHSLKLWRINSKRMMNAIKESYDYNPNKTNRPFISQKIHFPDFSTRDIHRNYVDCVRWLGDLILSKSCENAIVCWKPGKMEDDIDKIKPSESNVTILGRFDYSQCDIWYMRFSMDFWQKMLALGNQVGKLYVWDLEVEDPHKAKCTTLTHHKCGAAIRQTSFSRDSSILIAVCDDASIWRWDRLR
T1 sequence (Q15022 whole entry partner): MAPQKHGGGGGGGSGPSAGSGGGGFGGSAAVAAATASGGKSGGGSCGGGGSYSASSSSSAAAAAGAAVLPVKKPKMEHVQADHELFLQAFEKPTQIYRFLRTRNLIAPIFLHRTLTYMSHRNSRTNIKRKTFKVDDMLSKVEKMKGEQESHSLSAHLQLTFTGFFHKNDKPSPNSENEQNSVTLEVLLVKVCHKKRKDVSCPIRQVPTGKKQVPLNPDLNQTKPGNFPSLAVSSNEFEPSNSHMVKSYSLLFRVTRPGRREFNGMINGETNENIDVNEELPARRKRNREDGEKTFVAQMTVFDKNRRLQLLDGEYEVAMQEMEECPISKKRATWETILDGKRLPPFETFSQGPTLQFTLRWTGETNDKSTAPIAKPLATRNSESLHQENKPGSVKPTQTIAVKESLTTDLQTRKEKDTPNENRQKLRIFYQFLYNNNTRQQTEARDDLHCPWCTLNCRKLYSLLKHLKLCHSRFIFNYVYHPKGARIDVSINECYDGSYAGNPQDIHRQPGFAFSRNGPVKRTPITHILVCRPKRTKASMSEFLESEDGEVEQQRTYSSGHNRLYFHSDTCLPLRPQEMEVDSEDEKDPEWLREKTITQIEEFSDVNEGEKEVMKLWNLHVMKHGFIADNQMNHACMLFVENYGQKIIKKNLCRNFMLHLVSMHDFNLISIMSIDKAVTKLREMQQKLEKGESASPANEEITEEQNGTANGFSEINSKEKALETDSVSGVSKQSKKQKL
Procedure: In order to evaluate the EZH2 proteolytic activity of the compound according to the present invention, the following experiment was performed. Specifically, the CRISPR/Cas9 technique was used to construct a stable cell line of HiBiT-EZH2. […] After harvesting the cells, the cell solution was prepared at a concentration of 1 cell/100 ul, and 100 ul of the cell solution was dispensed into each well of a 96-well plate and seeded so that a single cell could proliferate in each well. After proliferating the cells for 2-3 weeks, some of the proliferated cells from one cell were recovered and gDNA was extracted. To confirm that the HiBiT sequence was correctly inserted into the EZH2 target, deep sequencing was performed to select the cells containing the HiBiT sequence, and after further verification through Sanger sequencing, the final EZH2-HiBiT HEK293T cells were obtained. 1×10^3 of the obtained cells were placed in a 96-well white plate, and after 18 hours of stabilization, each well was treated with the example compound at a final concentration of 1 μM. The control group was treated with the same concentration of DMSO which was used as the solvent of the example compound. After 72 hours of the treatment, an assay was performed using Nano-Glo HiBiT Lytic Detection System ([…], Promega). After removing the medium, 100 μL of lysis buffer, 1 μL of LgBiT protein and 1 μL of substrate buffer were added to each well. Then, the plate was reacted in a shaking incubator at 700 rpm for 2 minutes, and then the mixture of each well was pipetted to mix well. Thereafter, the plate was reacted at room temperature for 10 minutes while light was blocked, and luminescence was measured.

[2] = biological target: T2, EZH2 protein in LS174T cells (Homo sapiens, UniProt Q15910); assay: Proteolytic effect in colorectal cancer cells (Western blotting); assay type: cell-based
T2 construct: endogenous in cells; host or cells: LS174T
T2 sequence (Q15910 whole entry): as the sequence (Q15910 whole entry) above
T2 sequence (O75530 whole entry partner): as the sequence (O75530 whole entry partner) above
T2 sequence (Q15022 whole entry partner): as the sequence (Q15022 whole entry partner) above
Procedure: After 72 hours of the treatment, the cells were collected and lysed using RIPA buffer (50 mM Tris, pH 7.5, 150 mM NaCl, 1% Triton X-100, 0.1% SDS, […], 0.5% deoxycholate, and protease inhibitor cocktail), followed by sonication (30 sec on/30 sec off, 5 cycles) to prepare a cell lysate.

[3] = EZH2 protein, LS174T cells, 1 μM, 72 hours
[4] = EZH2 protein, LS174T cells, 1 uM, 72 hours, Western blotting

Row | Structure (SMILES) | Relative EZH2 degradation rate, 1 μM(%) Average [1] | Grade (percent value of the protein degradation when treated with 1 μM) [2, 3] | %, degradation at 1 uM [2, 4] | %, degradation at 1 uM [2] | Grade (percent value of the protein degradation when treated with 1 μM) [2]
1 | CCN(c1cc(-c2ccc(CN3CCN(CCNC(=O)CCOCCNc4cccc5c4C(=O)N(C4CCC(=O)NC4=O)C5=O)CC3)cc2)cc(C(=O)NCc2c(C)cc(C)[nH]c2=O)c1C)C1CCOCC1 (stereo not drawn) [compound 3, reference compound] | 19.2% |  |  |  | 
2 | CCN(c1cc(-c2ccc(N3CCN(CC(=O)NCCCCCCNc4cccc5c4C(=O)N(C4CCC(=O)NC4=O)C5=O)CC3)cc2)cc(C(=O)NCc2c(C)cc(C)[nH]c2=O)c1C)C1CCOCC1 (stereo not drawn) [compound 2, reference compound] | 16.2% |  |  |  | 
3 | CCN(c1cc(-c2ccc(CN3CCN(CC(=O)NCCCCCOCCCOCC(=O)Nc4cccc5c4CN(C4CCC(=O)NC4=O)C5=O)CC3)cc2)cc(C(=O)NCc2c(C)cc(C)[nH]c2=O)c1C)C1CCOCC1 (stereo not drawn) [Example 27, N-((4,6-dimethyl-2-oxo-1,2-dihydropyridine-3-yl)methyl)-4′-((4-(2-((5-(3-(2-((2-(2,6-dioxopiperidine-3-yl)-1-oxoisoindoline-4-yl)amino)-2-oxoethoxy)propoxy)pentyl)amino)-2-oxoethyl)piperazine-1-yl)methyl)-5-(ethyl(tetrahydro-2H-pyran-4-yl)amino)-4-methyl-[1,1′-biphenyl]-3-carboxamide] |  | D (<25%) | 2.27% |  | 
4 | CCN(c1cc(-c2ccc(CN3CCN(CC(=O)NCCCCCCOc4cccc5c4C(=O)N(C4CCC(=O)NC4=O)C5=O)CC3)cc2)cc(C(=O)NCc2c(C)cc(C)[nH]c2=O)c1C)C1CCOCC1 (stereo not drawn) [Example 8, N-((4,6-dimethyl-2-oxo-1,2-dihydropyridine-3-yl)methyl)-4′-((4-(2-((6-((2-(2,6-dioxopiperidine-3-yl)-1,3-dioxoisoindoline-4-yl)oxy)hexyl)amino)-2-oxoethyl)piperazine-1-yl)methyl)-5-(ethyl(tetrahydro-2H-pyran-4-yl)amino)-4-methyl-[1,1′-biphenyl]-3-carboxamide] |  | D (<25%) | 2.91% |  | 
5 | CCN(c1cc(-c2ccc(CN3CCN(CC(=O)NCCCCCCN[C@H](C(=O)N4C[C@H](O)C[C@H]4C(=O)NCc4ccc(-c5scnc5C)cc4)C(C)(C)C)CC3)cc2)cc(C(=O)NCc2c(C)cc(C)[nH]c2=O)c1C)C1CCOCC1 [Example 38, (2S,4R)-1-((S)-2-((6-(2-(4-((3′-(((4,6-dimethyl-2-oxo-1,2-dihydropyridine-3-yl)methyl)carbamoyl)-5′-(ethyl(tetrahydro-2H-pyran-4-yl)amino)-4′-methyl-[1,1′-biphenyl]-4-yl)methyl)piperazine-1-yl)acetamido)hexyl)amino)-3,3-dimethylbutanoyl)-4-hydroxy-N-(4-(4-methylthiazole-5-yl)benzyl)pyrrolidine-2-carboxamide] |  | D (<25%) | 9.97% |  | 
6 | CCN(c1cc(-c2ccc(CN3CCN(Cc4cn(CCCNc5cccc6c5C(=O)N(C5CCC(=O)NC5=O)C6=O)nn4)CC3)cc2)cc(C(=O)NCc2c(C)cc(C)[nH]c2=O)c1C)C1CCOCC1 (stereo not drawn) [Example 23, N-((4,6-dimethyl-2-oxo-1,2-dihydropyridine-3-yl)methyl)-4′-((4-((1-(3-((2-(2,6-dioxopiperidine-3-yl)-1,3-dioxoisoindoline-4-yl)amino)propyl)-1H-1,2,3-triazole-4-yl)methyl)piperazine-1-yl)methyl)-5-(ethyl(tetrahydro-2H-pyran-4-yl)amino)-4-methyl-[1,1′-biphenyl]-3-carboxamide] |  | D (<25%) | 1.52% |  | 
7 | CCN(c1cc(-c2ccc(CN3CCN(CC(=O)NCCN4CCN(CCNc5cccc6c5C(=O)N(C5CCC(=O)NC5=O)C6=O)CC4)CC3)cc2)cc(C(=O)NCc2c(C)cc(C)[nH]c2=O)c1C)C1CCOCC1 (stereo not drawn) [Example 29, N-((4,6-dimethyl-2-oxo-1,2-dihydropyridine-3-yl)methyl)-4′-((4-(2-((2-(4-(2-((2-(2,6-dioxopiperidine-3-yl)-1,3-dioxoisoindoline-4-yl)amino)ethyl)piperazine-1-yl)ethyl)amino)-2-oxoethyl)piperazine-1-yl)methyl)-5-(ethyl(tetrahydro-2H-pyran-4-yl)amino)-4-methyl-[1,1′-biphenyl]-3-carboxamide] |  | D (<25%) | 0% |  | 
8 | CCN(c1cc(-c2ccc(CN3CCN(Cc4cn(CCOCCNc5cccc6c5C(=O)N(C5CCC(=O)NC5=O)C6=O)nn4)CC3)cc2)cc(C(=O)NCc2c(C)cc(C)[nH]c2=O)c1C)C1CCOCC1 (stereo not drawn) [Example 24, N-((4,6-dimethyl-2-oxo-1,2-dihydropyridine-3-yl)methyl)-4′-((4-((1-(2-(2-((2-(2,6-dioxopiperidine-3-yl)-1,3-dioxoisoindoline-4-yl)amino)ethoxy)ethyl)-1H-1,2,3-triazole-4-yl)methyl)piperazine-1-yl)methyl)-5-(ethyl(tetrahydro-2H-pyran-4-yl)amino)-4-methyl-[1,1′-biphenyl]-3-carboxamide] |  | D (<25%) | 0% |  | 
9 | CCN(c1cc(-c2ccc(CN3CCN(CCOCCCCCCNc4cccc5c4C(=O)N(C4CCC(=O)NC4=O)C5=O)CC3)cc2)cc(C(=O)NCc2c(C)cc(C)[nH]c2=O)c1C)C1CCOCC1 (stereo not drawn) [Example 19, N-((4,6-dimethyl-2-oxo-1,2-dihydropyridine-3-yl)methyl)-4′-((4-(2-((6-((2-(2,6-dioxopiperidine-3-yl)-1,3-dioxoisoindoline-4-yl)amino)hexyl)oxy)ethyl)piperazine-1-yl)methyl)-5-(ethyl(tetrahydro-2H-pyran-4-yl)amino)-4-methyl-[1,1′-biphenyl]-3-carboxamide] |  | D (<25%) | 9.07% |  | 
10 | CCN(c1cc(-c2ccc(CN3CCN(C(=O)CNCCCCCCNc4cccc5c4C(=O)N(C4CCC(=O)NC4=O)C5=O)CC3)cc2)cc(C(=O)NCc2c(C)cc(C)[nH]c2=O)c1C)C1CCOCC1 (stereo not drawn) [Example 14, N-((4,6-dimethyl-2-oxo-1,2-dihydropyridine-3-yl)methyl)-4′-((4-((6-((2-(2,6-dioxopiperidine-3-yl)-1,3-dioxoisoindoline-4-yl)amino)hexyl)glycyl)piperazine-1-yl)methyl)-5-(ethyl(tetrahydro-2H-pyran-4-yl)amino)-4-methyl-[1,1′-biphenyl]-3-carboxamide] |  | D (<25%) | 6.21% |  | 
11 | CCN(c1cc(-c2ccc(CN3CCN(CC(=O)NCCCCOc4cccc5c4C(=O)N(C4CCC(=O)NC4=O)C5=O)CC3)cc2)cc(C(=O)NCc2c(C)cc(C)[nH]c2=O)c1C)C1CCOCC1 (stereo not drawn) [Example 7, N-((4,6-dimethyl-2-oxo-1,2-dihydropyridine-3-yl)methyl)-4′-((4-(2-((4-((2-(2,6-dioxopiperidine-3-yl)-1,3-dioxoisoindoline-4-yl)oxy)butyl)amino)-2-oxoethyl)piperazine-1-yl)methyl)-5-(ethyl(tetrahydro-2H-pyran-4-yl)amino)-4-methyl-[1,1′-biphenyl]-3-carboxamide] |  |  |  | 22.74% | D (key: A: >75%; B: 50-75%; C: 25-50%; D: <25%)
12 | CCN(c1cc(-c2ccc(CN3CCN(C(=O)CNCCCCNc4cccc5c4C(=O)N(C4CCC(=O)NC4=O)C5=O)CC3)cc2)cc(C(=O)NCc2c(C)cc(C)[nH]c2=O)c1C)C1CCOCC1 (stereo not drawn) [Example 13, N-((4,6-dimethyl-2-oxo-1,2-dihydropyridine-3-yl)methyl)-4′-((4-((4-((2-(2,6-dioxopiperidine-3-yl)-1,3-dioxoisoindoline-4-yl)amino)butyl)glycyl)piperazine-1-yl)methyl)-5-(ethyl(tetrahydro-2H-pyran-4-yl)amino)-4-methyl-[1,1′-biphenyl]-3-carboxamide] |  | C (25-50%) | 29.35% |  | 
13 | CCN(c1cc(-c2ccc(CN3CCN(CC(=O)NCCOCCOCCOCCC(=O)NCCNc4cccc5c4C(=O)N(C4CCC(=O)NC4=O)C5=O)CC3)cc2)cc(C(=O)NCc2c(C)cc(C)[nH]c2=O)c1C)C1CCOCC1 (stereo not drawn) [Example 4, N-((4,6-dimethyl-2-oxo-1,2-dihydropyridine-3-yl)methyl)-4′-((4-(18-((2-(2,6-dioxopiperidine-3-yl)-1,3-dioxoisoindoline-4-yl)amino)-2,15-dioxo-6,9,12-trioxa-3,16-diazaoctadecyl)piperazine-1-yl)methyl)-5-(ethyl(tetrahydro-2H-pyran-4-yl)amino)-4-methyl-[1,1′-biphenyl]-3-carboxamide] |  | D (<25%) | 0% |  | 
